US7872015B2, “Methods involving PDE4, compositions, and the screening thereof, for the treatment of degenerative ocular pathologies” (Exonhit Therapeutics SA, priority 2003, dated 2011)

What was measured:
[1] = tested on: cerebellar granular cells; test: Excitotoxicity protection in primary cerebellar granular cells (MTT test); format: cell-based, rat; settings: etazolate three hours before toxic agents, 6-hour incubation
Method: In this example, cerebellar granular neurons, cortical neurons and ventral spinal cord cells from rats were cultured according to methods known to those skilled in the art. Seven-day-old Wistar rats were decapitated and brains were dissected. The meninges were removed and the tissue was then cut into small pieces and trypsinized for 15 minutes at 37° C. Cells were dissociated by trituration, then placed in culture at a density of 300,000 cells per cm^2 in Eagle basic medium supplemented with 10% fetal calf serum and 2 mM glutamine. The next day, 10 μM ARA-C, an antimitotic agent, was added to prevent proliferation of glial cells. The cells were treated on day 9 of culture with the inhibitor compound etazolate, three hours before adding the toxic agents 50 μM kainate or 100 μM N-methyl-D-aspartate in the presence of 10 μM D-serine. Immediately before adding the toxic agents, 8-bromo-cAMP was added. All treatments were done at least in duplicate and in at least two different cultures. After a 6-hour incubation, toxicity was measured by the MTT test. The results were normalized to the untreated mean and analyzed statistically with a Wilcoxon test. The level of significance was p≦0.05. Toxicity was measured with the MTT test. […] Absorbance at 550 nm was measured and the percentage viability was calculated.

cortical neurons = test: Excitotoxicity protection in primary cortical neurons (MTT test); format: cell-based, rat; settings: etazolate 1 hour before toxic agents, 6-hour incubation
Method: (§1) In this example, cerebellar granular neurons, cortical neurons and ventral spinal cord cells from rats were cultured according to methods known to those skilled in the art.
Wistar rat embryos aged 16 days were removed and the cortex dissected. After trypsination at 37° C. for 25 minutes, the cells were dissociated by trituration, then seeded in minimum essential medium supplemented with 10% horse serum, 10% fetal calf serum and 2 mM glutamine, at a density of 300,000 cells per cm^2. After 4 days of culture, half the medium was replaced with minimum essential medium supplemented with 5% horse serum and 2 mM glutamine. The same day, the antimitotic 5-fluoro-2-deoxyuridine (10 μM) was added. After 7 and 11 days of culture, half the medium was replaced with conditioned medium composed of MEM supplemented with 5% horse serum and 2 mM glutamine; prior to use this medium was passed overnight on a layer of cortical astrocytes. On day 14, the cells were treated with the inhibitor compound etazolate, 1 hour before adding the toxic agents 50 μM kainate or 20 μM N-methyl-D-aspartate in the presence of 10 μM D-serine. […] After a 6-hour incubation, toxicity was measured by the MTT test. The results were normalized to the untreated mean and analyzed statistically with a Wilcoxon test. […]
(§2) Toxicity was measured with the MTT test. […] Absorbance at 550 nm was measured and the percentage viability was calculated.

[2] = tested on: ventral spinal cord cells; test: Excitotoxicity protection in primary ventral spinal cord cells (MTT test); format: cell-based, rat; settings: 100 μM NMDA + 10 μM D-serine, 3-hour incubation
Method: as §1
Cells were isolated from 14-day-old Wistar rat embryos. On arrival, gestating rats were sacrificed by carbon dioxide intoxication.
The chain of embryos was removed and placed in a dish containing PBS.
The spinal cord of each embryo was dissected and the ventral cord was separated from the dorsal cords. The ventral cords were then trypsinized at 37° C. for 20 minutes. Trypsinization was stopped by addition of Leibovitz 15 medium, 20% horse serum, supplement N2 (1×), 20% glucose (3.2 mg/ml), 7.5% bicarbonate (1.8 mg/ml) and 2 mM L-glutamine. The cells were dissociated by trituration. Clumps of tissue were removed and the dissociated cells were then quantified by trypan blue staining. The cells were seeded at 250,000 cells per cm^2 in neurobasal medium containing 2% horse serum, supplement B27 (1×), and 2 mM glutamine. […] After a 3-hour incubation with NMDA/D-serine as toxic agent and a 1-hour incubation with kainate, toxicity was measured by the MTT test. The results were normalized to the untreated mean and analyzed statistically with a Wilcoxon test with p<0.05.
as §2

[3] = tested on: retinal explants from rd1 mice; test: Retinal explant cultures from rd1 mice, histopathology of photoreceptors; format: cell-based; settings: 2 μM etazolate, versus untreated explants
Method: This example describes the effects of a PDE4 inhibitor on retina of rd1 mice, which are characterized by a loss of visual cells starting two weeks after birth. For each etazolate concentration (0.02 μM, 0.2 μM, 2 μM and 20 μM), six retinal explants from rd1 mice were cultured for 21 days. The culture was started on postnatal day 7 in medium free of bovine fetal serum but containing etazolate at the indicated concentration. Six retinal explants from the same animals were used as controls for the treated explants. In this case, the explants were grown in culture medium alone or in culture medium containing the vehicle used for etazolate. For both conditions (control and treatment), the culture medium was changed every two days. After 21 days of culture, the explants were fixed, sectioned and labelled for histopathologic studies. Explants from untreated rd1 mice (postnatal day 28) lost most of their photoreceptors in culture, and the presence of an increase in photoreceptors was then detected by counting the remaining photoreceptors.

PBR = molecular target: T1, PBR (Homo sapiens, UniProt P30536); test: Mitochondrial-specific rhodamine 1,2,3 fluorescence in HeLa cells expressing the PBR; format: cell-based
T1 construct: endogenous in cells; host or cells: HeLa cells
From the text: The PBR is situated between the inner and outer mitochondrial membrane. It forms part of the transition pore complex, which participates in regulating mitochondrial flux by opening the mitochondrial pore. There exist molecules which display high affinity for PBR, particularly Ro5-4864 and PK11195.
By monitoring mitochondrial-specific fluorescence of rhodamine 1,2,3, the effects of PBR-specific ligands and those of etazolate could be followed.

[4] = Escalating single oral dose study in healthy male volunteers: tolerability; format: in vivo, humans; settings: oral capsules, single doses 0.5-20 mg
Method: (§3) In this study, increasing doses of etazolate (0.5, 1, 2, 5, 10 and 20 mg) were administered orally in the form of 0.5 and 5 mg capsules to different and sequential groups of eight young healthy male volunteers. This was a single-center, double-blind study in which two of the eight subjects received a placebo.
(§4) The following parameters were evaluated: clinical tolerability (adverse effects, clinical signs, changes in blood pressure or heart rate), electrocardiographic tolerability (recording of the ECG) and biological tolerability (hematology and blood biochemistry, urinalysis) for 24 hours after dosing. The product was assayed in plasma at different times before and after administration in each subject (0.25-0.50-1.00-1.50-2.00-3.00-4.00-5.00-6.00-8.00-10.00-12.00 and 24.00 hours). The product was also assayed in urine collected before and after administration (4, 4-8,8-12 and 12-24 hours).

[5] = Escalating single oral dose study in healthy male volunteers: plasma assays; format: in vivo; settings: humans, at high doses
Method: as §3, §4

T1 sequence (P30536 whole entry): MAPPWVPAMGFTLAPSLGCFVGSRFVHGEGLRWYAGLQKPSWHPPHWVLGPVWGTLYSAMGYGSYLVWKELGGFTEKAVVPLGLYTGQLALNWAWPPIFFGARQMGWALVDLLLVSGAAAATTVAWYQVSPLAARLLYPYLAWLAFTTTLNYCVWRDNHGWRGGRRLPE

SMILES	protective effect on kainate-induced toxicity ([1]; 50 μM kainate) [%]	protective effect on NMDA/serine-induced toxicity ([1]; 100 μM N-methyl-D-aspartate + 10 μM D-serine) [%]	protective effect on NMDA/serine-induced toxicity (cortical neurons; 20 μM N-methyl-D-aspartate + 10 μM D-serine) [%]	protective effect on kainate-induced toxicity (cortical neurons; 50 μM kainate) [%]	protective effect on NMDA/serine-induced toxicity [2] [%]	preservation of photoreceptors (photoreceptor layer) ([3]; rd1 retinal explants cultured 21 days from postnatal day 7)	number of picnotic cells ([3]; rd1 retinal explants cultured 21 days)	mitochondrial-specific fluorescence of rhodamine 1,2,3 (PBR)	side effects [4]	tolerability (clinical, electrocardiographic, biological) ([4]; 24 hours after dosing)	absorption (plasma assays) [5]
CCOC(=O)c1cnc2c(cnn2CC)c1NN=C(C)C [etazolate]	57	60	33	25	36	much better preserved	marked reduction	induced the same loss of fluorescence as the PBR-specific ligands	did not cause any side effects	well tolerated	good
CN1C(=O)CN=C(c2ccc(Cl)cc2)c2cc(Cl)ccc21 [Ro5-4864]	–	–	–	–	–	–	–	loss of fluorescence	–	–	–
CCC(C)N(C)C(=O)c1cc2ccccc2c(-c2ccccc2Cl)n1 (stereo not shown) [PK11195]	–	–	–	–	–	–	–	loss of fluorescence	–	–	–
